# According to article PMC11048362, “Conformational Modulation of Tissue Transglutaminase via Active Site Thiol Alkylating Agents: Size Does Not Matter” (Biomolecules, 2024):
# Biological target: T1, TG2 (human tissue transglutaminase) (Homo sapiens, UniProt P21980)
# T1 construct: gene TGM2; recombinant, expressed in and purified from E. coli as previously described; catalytic Cys277
# T1 sequence (P21980 2-687): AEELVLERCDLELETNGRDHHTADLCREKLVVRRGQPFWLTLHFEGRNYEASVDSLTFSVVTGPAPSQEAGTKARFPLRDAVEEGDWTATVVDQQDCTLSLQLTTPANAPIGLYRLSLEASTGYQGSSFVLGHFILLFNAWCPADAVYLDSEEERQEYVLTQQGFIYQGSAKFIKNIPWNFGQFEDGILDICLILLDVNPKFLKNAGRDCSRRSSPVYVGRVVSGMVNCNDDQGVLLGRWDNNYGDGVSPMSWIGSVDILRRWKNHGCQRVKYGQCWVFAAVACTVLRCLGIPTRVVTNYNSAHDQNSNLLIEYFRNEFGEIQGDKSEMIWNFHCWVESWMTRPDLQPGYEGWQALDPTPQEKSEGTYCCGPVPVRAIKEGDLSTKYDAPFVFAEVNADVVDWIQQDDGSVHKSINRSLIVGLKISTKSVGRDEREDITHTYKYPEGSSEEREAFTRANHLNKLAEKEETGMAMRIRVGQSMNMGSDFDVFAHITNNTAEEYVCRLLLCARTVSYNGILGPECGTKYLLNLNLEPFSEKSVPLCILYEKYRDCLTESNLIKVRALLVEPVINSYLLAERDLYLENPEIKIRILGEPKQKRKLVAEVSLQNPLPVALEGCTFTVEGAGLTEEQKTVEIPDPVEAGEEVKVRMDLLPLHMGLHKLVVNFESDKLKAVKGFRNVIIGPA
# Test: colorimetric AL5 hydrolysis at […] nm, Kitz and Wilson time-dependent inactivation, saturation fit
# Format: biochemical
# Settings: covalent (Cys277), irreversible; 100 µM AL5, corrected for substrate competition; 50 mM MOPS pH 6.91, 15.5 mM CaCl2, 25 °C
row,KI (inactivation),Compound
1,3.2 ± 1 µM,"C=CC(=O)NCC(=O)N1CCN(C(=O)C23CC4CC(CC(C4)C2)C3)CC1 [compound 1, 1]"
2,118 ± 59 µM,"C=CC(=O)N1CCN(C(=O)C23CC4CC(CC(C4)C2)C3)CC1 [compound 4, 4]"
3,842 ± 25 µM,"C=CC(=O)NCC(N)=O [compound 6, 6]"

# Further lines, the molecule ahead of its results:
row,Compound,KI (inactivation)
1,"C=CC(=O)NCC(=O)N1CCN(C(=O)OC(C)(C)C)CC1 [compound 2, 2]",129 ± 53 µM
2,"C=CC(=O)NCC(=O)N1CCN(C(C)=O)CC1 [compound 3, 3]",96 ± 17 µM
3,"C=CC(=O)NCC(=O)N1CCOCC1 [compound 5, 5]",487 ± 161 µM
4,"C=CC(N)=O [compound 8, acrylamide]",148 ± 68 µM
